The source made the active and inactive calls. The rule behind the calls is not given here.
System: CCRIS mutagenicity, Ames/micronucleus/aberration tests
Assay: CCRIS mutagenicity studies
[1] = Test System: AMES SALMONELLA TYPHIMURIUM, Strain/Indicator: TA98, Metabolic Activation: NONE, Method: STANDARD PLATE
[2] = Test System: AMES SALMONELLA TYPHIMURIUM, Strain/Indicator: TA100, Metabolic Activation: NONE, Method: STANDARD PLATE

`C[Si](C)(C)Cl` was tested, and the mutagenic call (Test System: AMES SALMONELLA TYPHIMURIUM, Strain/Indicator: TA98, Metabolic Activation: HAMSTER, LIVER, S-9, AROCLOR 1254, Method: PREINCUBATION) was “inactive; negative”, the mutagenic call (Test System: AMES SALMONELLA TYPHIMURIUM, Strain/Indicator: TA98, Metabolic Activation: NONE, Method: PREINCUBATION) was “inactive; negative” and the mutagenic call [1] was “inactive; negative”. The mutagenic call (Test System: AMES SALMONELLA TYPHIMURIUM, Strain/Indicator: TA98, Metabolic Activation: RAT LIVER S-9, AROCLOR 1254, Method: STANDARD PLATE) was “inactive; negative”, the mutagenic call (Test System: AMES SALMONELLA TYPHIMURIUM, Strain/Indicator: TA98, Metabolic Activation: RAT, LIVER, S-9, AROCLOR 1254, Method: PREINCUBATION) was “inactive; negative” and the mutagenic call (Test System: AMES SALMONELLA TYPHIMURIUM, Strain/Indicator: TA100, Metabolic Activation: HAMSTER, LIVER, S-9, AROCLOR 1254, Method: PREINCUBATION) was “inactive; negative”. For the same molecule, the mutagenic call (Test System: AMES SALMONELLA TYPHIMURIUM, Strain/Indicator: TA100, Metabolic Activation: NONE, Method: PREINCUBATION) was “inactive; negative”, the mutagenic call [2] was “inactive; negative” and the mutagenic call (Test System: AMES SALMONELLA TYPHIMURIUM, Strain/Indicator: TA100, Metabolic Activation: RAT LIVER S-9, AROCLOR 1254, Method: STANDARD PLATE) was “inactive; negative”. The mutagenic call (Test System: AMES SALMONELLA TYPHIMURIUM, Strain/Indicator: TA100, Metabolic Activation: RAT, LIVER, S-9, AROCLOR 1254, Method: PREINCUBATION) was “inactive; negative”, the mutagenic call (Test System: AMES SALMONELLA TYPHIMURIUM, Strain/Indicator: TA1535, Metabolic Activation: HAMSTER, LIVER, S-9, AROCLOR 1254, Method: PREINCUBATION) was “inactive; negative” and the mutagenic call (Test System: AMES SALMONELLA TYPHIMURIUM, Strain/Indicator: TA1535, Metabolic Activation: NONE, Method: PREINCUBATION) was “inactive; negative”. The mutagenic call (Test System: AMES SALMONELLA TYPHIMURIUM, Strain/Indicator: TA1535, Metabolic Activation: NONE, Method: STANDARD PLATE) was “inactive; negative”, the mutagenic call (Test System: AMES SALMONELLA TYPHIMURIUM, Strain/Indicator: TA1535, Metabolic Activation: RAT LIVER S-9, AROCLOR 1254, Method: STANDARD PLATE) was “inactive; negative” and the mutagenic call (Test System: AMES SALMONELLA TYPHIMURIUM, Strain/Indicator: TA1535, Metabolic Activation: RAT, LIVER, S-9, AROCLOR 1254, Method: PREINCUBATION) was “inactive; negative”. The mutagenic call (Test System: AMES SALMONELLA TYPHIMURIUM, Strain/Indicator: TA1537, Metabolic Activation: HAMSTER, LIVER, S-9, AROCLOR 1254, Method: PREINCUBATION) was “inactive; negative”, the mutagenic call (Test System: AMES SALMONELLA TYPHIMURIUM, Strain/Indicator: TA1537, Metabolic Activation: NONE, Method: PREINCUBATION) was “inactive; negative” and the mutagenic call (Test System: AMES SALMONELLA TYPHIMURIUM, Strain/Indicator: TA1537, Metabolic Activation: NONE, Method: STANDARD PLATE) was “inactive; negative”. For the same molecule, the mutagenic call (Test System: AMES SALMONELLA TYPHIMURIUM, Strain/Indicator: TA1537, Metabolic Activation: RAT LIVER S-9, AROCLOR 1254, Method: STANDARD PLATE) was “inactive; negative”, the mutagenic call (Test System: AMES SALMONELLA TYPHIMURIUM, Strain/Indicator: TA1537, Metabolic Activation: RAT, LIVER, S-9, AROCLOR 1254, Method: PREINCUBATION) was “inactive; negative” and the mutagenic call (Test System: AMES SALMONELLA TYPHIMURIUM, Strain/Indicator: TA1538, Metabolic Activation: HAMSTER, LIVER, S-9, AROCLOR 1254, Method: PREINCUBATION) was “inactive; negative”. For the same molecule, the mutagenic call (Test System: AMES SALMONELLA TYPHIMURIUM, Strain/Indicator: TA1538, Metabolic Activation: NONE, Method: PREINCUBATION) was “inactive; negative”, the mutagenic call (Test System: AMES SALMONELLA TYPHIMURIUM, Strain/Indicator: TA1538, Metabolic Activation: NONE, Method: STANDARD PLATE) was “inactive; negative” and the mutagenic call (Test System: AMES SALMONELLA TYPHIMURIUM, Strain/Indicator: TA1538, Metabolic Activation: RAT LIVER S-9, AROCLOR 1254, Method: STANDARD PLATE) was “inactive; negative”. The mutagenic call (Test System: AMES SALMONELLA TYPHIMURIUM, Strain/Indicator: TA1538, Metabolic Activation: RAT, LIVER, S-9, AROCLOR 1254, Method: PREINCUBATION) was “inactive; negative”, the mutagenic call (Test System: E. COLI, Strain/Indicator: P3078 POLA, Metabolic Activation: NONE, Method: SPOT TEST) was “inactive; negative” and the mutagenic call (Test System: E. COLI, Strain/Indicator: P3078 POLA, Metabolic Activation: RAT LIVER S-9, AROCLOR 1254, Method: SPOT TEST) was “inactive; negative”. For the same molecule, the mutagenic call (Test System: E. COLI, Strain/Indicator: W3110, Metabolic Activation: NONE, Method: SPOT TEST) was “inactive; negative”, the mutagenic call (Test System: E. COLI, Strain/Indicator: W3110, Metabolic Activation: RAT LIVER S-9, AROCLOR 1254, Method: SPOT TEST) was “inactive; negative” and the mutagenic call (Test System: MOUSE LYMPHOMA, Strain/Indicator: L5178Y (TK+/TK-), Metabolic Activation: RAT, LIVER, S-9, AROCLOR 1254, Method: SUSPENSION/PLATE) was “inactive; negative. reevaluation of results: negative”. The mutagenic call (Test System: MOUSE LYMPHOMA, Strain/Indicator: L5178Y (TK+/TK-), Metabolic Activation: RAT, LIVER, S-9, Method: SUSPENSION/PLATE) was “inactive; negative”.
For `O[As](O)O`, the mutagenic call (End Point: IN VIVO MICRONUCLEUS, Test System: BONE MARROW POLYCHROMATIC ERYTHROCYTES, Species: MOUSE, Strain/Sex: C57BL/6/MALE, Route: IP INJECTION) was “active; positive”.
In the case of `O=S(=O)(O)c1ccc(N=Nc2cc(S(=O)(=O)O)c3ccccc3c2O)c2ccccc12`, the mutagenic call (End Point: IN VITRO CHROMOSOMAL ABERRATIONS, Test System: CHO CELLS, Metabolic Activation: NONE) is reported as “inactive; negative”, the mutagenic call (End Point: IN VITRO CHROMOSOMAL ABERRATIONS, Test System: CHO CELLS, Metabolic Activation: RAT, LIVER, S-9, AROCLOR 1254) is reported as “inactive; negative” and the mutagenic call (Test System: Mouse lymphoma, Strain/Indicator: L5178Y (tk+/tk-), Metabolic Activation: None, Method: Suspension/plate) is reported as “inactive; negative”. The mutagenic call (Test System: Mouse lymphoma, Strain/Indicator: L5178Y (tk+/tk-), Metabolic Activation: Rat, Liver, S-9, Aroclor 1254, Method: Suspension/plate) was “inactive; negative”.
In the case of `O=C([O-])c1cccnc1Nc1cccc(C(F)(F)F)c1.O=C([O-])c1cccnc1Nc1cccc(C(F)(F)F)c1.[Cu+2]`, the mutagenic call (Test System: AMES SALMONELLA TYPHIMURIUM, Strain/Indicator: TA97, Metabolic Activation: MOUSE, LIVER, S-9, Method: STANDARD PLATE) is reported as “inactive; negative”, the mutagenic call (Test System: AMES SALMONELLA TYPHIMURIUM, Strain/Indicator: TA97, Metabolic Activation: NONE, Method: STANDARD PLATE) is reported as “inactive; negative” and the mutagenic call (Test System: AMES SALMONELLA TYPHIMURIUM, Strain/Indicator: TA97, Metabolic Activation: RAT LIVER S-9, DELOR 103, Method: STANDARD PLATE) is reported as “inactive; negative”. For the same molecule, the mutagenic call (Test System: AMES SALMONELLA TYPHIMURIUM, Strain/Indicator: TA98, Metabolic Activation: MOUSE, LIVER, S-9, Method: STANDARD PLATE) was “inactive; negative”, the mutagenic call [1] was “inactive; negative” and the mutagenic call (Test System: AMES SALMONELLA TYPHIMURIUM, Strain/Indicator: TA98, Metabolic Activation: RAT LIVER S-9, DELOR 103, Method: STANDARD PLATE) was “inactive; negative”. For the same molecule, the mutagenic call (Test System: AMES SALMONELLA TYPHIMURIUM, Strain/Indicator: TA100, Metabolic Activation: MOUSE, LIVER, S-9, Method: STANDARD PLATE) was “inactive; negative”, the mutagenic call [2] was “inactive; negative” and the mutagenic call (Test System: AMES SALMONELLA TYPHIMURIUM, Strain/Indicator: TA100, Metabolic Activation: RAT LIVER S-9, DELOR 103, Method: STANDARD PLATE) was “inactive; negative”. The mutagenic call (Test System: AMES SALMONELLA TYPHIMURIUM, Strain/Indicator: TA102, Metabolic Activation: MOUSE, LIVER, S-9, Method: STANDARD PLATE) was “inactive; negative”, the mutagenic call (Test System: AMES SALMONELLA TYPHIMURIUM, Strain/Indicator: TA102, Metabolic Activation: NONE, Method: STANDARD PLATE) was “inactive; negative” and the mutagenic call (Test System: AMES SALMONELLA TYPHIMURIUM, Strain/Indicator: TA102, Metabolic Activation: RAT LIVER S-9, DELOR 103, Method: STANDARD PLATE) was “inactive; negative”.
